Here are results for 26 compounds from patent publication US20160311826A1, “SGC STIMULATORS” (IRONWOOD PHARMACEUTICALS, INC., priority 2013, published 2016).

The first experiment has as its target T1, human recombinant soluble guanylate cyclase enzyme α1β1 (h sGC) (Homo sapiens, UniProt Q02108+Q02153).
T1 construct: purchased Enzo Life Sciences ALX-201-177
T1 sequence (Q02108 1-690): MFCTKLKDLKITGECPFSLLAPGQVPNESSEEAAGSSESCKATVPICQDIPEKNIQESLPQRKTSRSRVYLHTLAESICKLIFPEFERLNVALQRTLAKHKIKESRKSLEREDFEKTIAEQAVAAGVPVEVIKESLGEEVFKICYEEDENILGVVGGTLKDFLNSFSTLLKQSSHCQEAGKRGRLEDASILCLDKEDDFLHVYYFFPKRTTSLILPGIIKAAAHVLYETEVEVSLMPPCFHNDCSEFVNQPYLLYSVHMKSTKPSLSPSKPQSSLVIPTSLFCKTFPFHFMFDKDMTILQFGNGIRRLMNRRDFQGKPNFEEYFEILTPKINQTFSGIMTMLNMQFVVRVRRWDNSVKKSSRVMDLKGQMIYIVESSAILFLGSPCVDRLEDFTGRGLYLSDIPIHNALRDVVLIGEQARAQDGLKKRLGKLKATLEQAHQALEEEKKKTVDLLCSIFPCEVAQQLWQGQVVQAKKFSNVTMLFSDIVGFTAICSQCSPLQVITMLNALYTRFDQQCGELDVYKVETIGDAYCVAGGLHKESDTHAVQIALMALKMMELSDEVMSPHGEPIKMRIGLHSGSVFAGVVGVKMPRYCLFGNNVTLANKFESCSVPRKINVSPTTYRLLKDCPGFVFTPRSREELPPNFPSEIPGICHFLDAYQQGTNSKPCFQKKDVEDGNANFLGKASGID
T1 sequence (Q02153 1-619): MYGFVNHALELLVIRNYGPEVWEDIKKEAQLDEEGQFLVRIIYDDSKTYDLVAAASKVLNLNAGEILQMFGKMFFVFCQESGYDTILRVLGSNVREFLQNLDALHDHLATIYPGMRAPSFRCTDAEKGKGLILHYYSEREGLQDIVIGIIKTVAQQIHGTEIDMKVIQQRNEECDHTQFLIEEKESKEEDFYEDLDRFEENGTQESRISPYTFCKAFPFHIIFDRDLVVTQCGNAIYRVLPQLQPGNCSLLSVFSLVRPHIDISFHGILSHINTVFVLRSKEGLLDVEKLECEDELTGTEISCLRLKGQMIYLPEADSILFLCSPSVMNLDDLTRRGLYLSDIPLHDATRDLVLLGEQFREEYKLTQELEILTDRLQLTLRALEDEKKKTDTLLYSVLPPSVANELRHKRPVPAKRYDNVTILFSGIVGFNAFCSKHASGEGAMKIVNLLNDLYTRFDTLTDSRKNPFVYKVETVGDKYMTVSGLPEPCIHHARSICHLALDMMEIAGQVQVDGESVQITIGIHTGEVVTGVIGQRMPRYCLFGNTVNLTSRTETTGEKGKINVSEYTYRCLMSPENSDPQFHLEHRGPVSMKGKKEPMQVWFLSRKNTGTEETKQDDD
Nature of the experiment: Purified human recombinant sGC α1β1 enzyme assay in the presence of DETA-NONOate (cGMP HTRF). Type of experiment: biochemical.
Settings: not given
Here is the method: Purified human recombinant soluble guanylate cyclase enzyme α1β1 (h sGC) obtained from Enzo Life Sciences (P/N: ALX-201-177) was used to evaluate the activity of test compounds. The assay reactions contained 0.1 M Tris (pH 8.0), 0.5 mg/mL BSA, 2 mM DTT, 4 mM MgCl2, 30 uM DETA NONOate (Enzo Life Science P/N: ALX-430-014), and 12.5 ng/ml human soluble guanylate cyclase enzyme. […] Guanosine 5′-triphosphate (Sigma-Aldrich P/N: G8877) was added to a final concentration of 300 μM and enzyme reactions were incubated (100 μL, 384-well plate format) at 37° C. for 20 minutes. The controls contained 3% DMSO (low control), or 30 uM of Compound Y (high control). After the 20 minute incubation, the reaction was stopped with the addition of 100 μL of ice cold 20% acetic acid.
cGMP concentrations in all samples were determined using the cGMP HTRF (Cisbio P/N: 62GM2PEC) assay per manufacturer's instructions. A cGMP standard curve was fit using a 4-parameter fit (log(inhibitor) vs. response—variable slope) using GraphPad Prism Software v.6. Samples were diluted appropriately to ensure that values fell within the linear range of the standard curve. The EC50 was interpolated from the curve fit and is defined as the concentration at which the compound elicits 50% of the maximal response of the 30 uM of Compound Y, the high control compound.
For the compound `CCOC(=O)C1(C)C(=O)Nc2nc(-c3nn(Cc4ccccc4F)c(=O)n3C)nc(N)c21` (stereo not drawn) [Compound I-29], the EC50 lay within 2 to 5 µM.
`CCOC(=O)C1(C)C(=O)Nc2nc(-c3nc(OC)n(Cc4ccccc4F)n3)nc(N)c21` (stereo not drawn) [Compound I-30]: the EC50 lay in the range of 2 to 5 µM.

The same experiment, now with this note: 30 uM DETA NONOate; concentration eliciting 50% of high control response (30 uM Compound Y); read-out: sGC_Enz_HTRF_a1b1 EC50 Abs.
As for `O=c1[nH]c(-c2cc(OC(F)F)n(Cc3ccccc3F)n2)ncc1F` [Compound I-4], the EC50 is greater than 5 µM.
As to `COc1cc(-c2ncc(F)c(=O)[nH]2)nn1Cc1ccccc1F` [Compound I-5], the EC50 is greater than 5 µM.
For `COc1cc(-c2nccc(N)n2)nn1Cc1ccccc1F` [Compound I-6], the EC50 is greater than 5 µM.
Turning to `COc1cc(-c2ncc(F)c(NCC(=O)O)n2)nn1Cc1ccccc1F` [Compound I-9], the EC50 is greater than 5 µM.
As for `CC1(C(N)=O)C(=O)Nc2nc(-c3nn(Cc4ccccc4F)c(=O)[nH]3)nc(N)c21` (stereo not drawn) [Compound I-10], the EC50 is greater than 30 µM.
As to `COc1cc(-c2ncc(F)c(NCCO)n2)nn1Cc1ccccc1F` [Compound I-13], the EC50 lay within 2 to 5 µM.
In the case of `COc1nc(-c2nc(N)c3c(n2)NC(=O)C3(C)C(N)=O)nn1Cc1ccccc1F` (stereo not drawn) [Compound I-17], the EC50 is greater than 5 µM.
Consider `Cn1c(-c2nc(N)c3c(n2)NC(=O)C3(C)C(N)=O)nn(Cc2ccccc2F)c1=O` (stereo not drawn) [Compound I-18], for which the EC50 was greater than 5 µM.
For the compound `COc1cc(-c2ncc(F)c(NCc3cc(=O)[nH]o3)n2)nn1Cc1ccccc1F` [Compound I-19], the EC50 lay within 2 to 5 µM.
On the same count and under the same terms, then `COc1cc(-c2ncc(F)c(NCC(O)(C(N)=O)C(F)(F)F)n2)nn1Cc1ccccc1F` (stereo not drawn) [Compound I-20], with less than 2 µM; and `CCOC(=O)C1(C)C(=O)Nc2nc(-c3nn(Cc4ccccc4F)c(=O)[nH]3)nc(N)c21` (stereo not drawn) [Compound I-21], with greater than 5 µM.
For the compound `COc1nc(-c2nc(N)c3c(n2)NC(=O)C3(C)C(=O)NC2CC2)nn1Cc1ccccc1F` (stereo not drawn) [Compound I-37], the EC50 is 2 to 5 µM.
In the case of `Cn1c(-c2nc(N)c3c(n2)NC(=O)C3(C)C(=O)NC2CC2)nn(Cc2ccccc2F)c1=O` (stereo not drawn) [Compound I-38], the EC50 was less than 2 µM.
For the compound `CC1(C(N)=O)C(=O)Nc2nc(-c3cc(O)n(Cc4ccccc4F)n3)nc(N)c21` (stereo not drawn) [Compound I-48], the EC50 is greater than 5 µM.
On to `Fc1cnc(-c2cc(OC(F)F)n(Cc3cccc(F)c3F)n2)nc1` [Compound I-59], for which the EC50 is greater than 5 µM.
With `COc1cc(-c2ncc(F)c(NCC(O)CO)n2)nn1Cc1ccccc1F` (stereo not drawn) [Compound I-64], the EC50 lay in the range of 2 to 5 µM.
On to `COc1cc(-c2ncc(F)c(N3CCC[C@H](C)[C@@H]3C(=O)O)n2)nn1Cc1ccccc1F` [Compound I-70], for which the EC50 was 2 to 5 µM.

The target of the next experiment is T2, soluble guanylate cyclase (sGC) (Homo sapiens, UniProt Q02108+Q02153).
T2 construct: endogenously expressing soluble guanylate cyclase (sGC); endogenous in cells; host or cells: HEK293
T2 sequence (Q02153 1-619): T1 sequence (Q02153 1-619)
T2 sequence (Q02108 1-690): T1 sequence (Q02108 1-690)
Nature of the experiment: sGC-HEK-cGMP assay with LC/MS detection. Type of experiment: cell-based. The settings on record: HEK293 cells, 10 μM DETA-NONOate; concentration eliciting 50% of high control response (30 μM Compound Y); read-out: sGC_HEK_LC MS EC50 Abs. Here is the method: Human embryonic kidney cells (HEK293), endogenously expressing soluble guanylate cyclase (sGC), were used to evaluate the activity of test compounds. Compounds stimulating the sGC enzyme should cause an increase in the intracellular concentration of cGMP. HEK 293 cells were seeded in Dulbecco's Modification of Eagle's Medium supplemented with fetal bovine serum (10% final) and penicillin (100 U/mL)/streptomycin (100 ug/mL) in a […] at a density of 1.5×10^4 cells/well in a poly-D-lysine coated 384 well flat bottom plate. Cells were incubated overnight at 37° C. in a humidified chamber with 5% CO2. Medium was aspirated and cells were washed with 1× Hank's Buffered Saline Salt Solution […]. Cells were then incubated for 15 minutes at 37° C. with 50 μL of a 0.5 mM 3-isobutyl-1-methylxanthine (IBMX) solution. Test article and Diethylenetriamine NONOate (DETA-NONOate) solutions (x μM concentration for test article solution and 10 μM concentration for DETA-NONOate solution; wherein x is one of the following concentrations);
were then added to the assay mixture and the resulting mixture incubated at 37° C. for 20 minutes. After the 20 minute incubation, the assay mixture was aspirated and 10% acetic acid containing 150 ng/mL+3-cGMP (internal standard for LCMS) (50 μL) was added to the cells. The plate was incubated at 4° C. for 30 minutes in the acetic acid solution to stop the reaction and lyse the cells. The plates were then centrifuged at 1,000g for 3 minutes at 4° C. and the supernatant transferred to a clean reaction plate for LCMS analysis.
cGMP concentrations were determined from each sample using the LCMS conditions below (Table 2) and calculated standard curve. The standard curve was prepared in 10% acetic acid with 150 ng/mL+3cGMP (isotopically labelled cGMP with a weight 3 units higher than wild type) with the following final concentrations of cGMP in ng/mL: 1, 5, 10, 50, 100, 250, 500, 1000, 2000.
Data were normalized to a high control using the following equation: 100*(Sample−Low Control)/(High Control−Low Control), where the low control is the average of 16 samples treated with 1% DMSO, and the high control is the average of 16 samples treated with 30 μM of Compound Y depicted below. Data were fit using a 4-parameter fit (log(agonist) vs. response−variable slope) using GraphPad Prism Software v.5. n=2 for all compounds. The Absolute EC50 was interpolated from the curve fit and is defined as the concentration at which a given compound elicits 50% of the high control response. Compounds failing to elicit a minimum response of 50% are reported as >30 μM. For compounds run in duplicate or n higher than 2, the result herein given is the geometric mean of the several results obtained.
Code definitions for the whole cell HEK assay values, expressed as Absolute EC50 which is defined as the concentration at which a given compound elicits 50% of the high control response (Compound Y). Compounds failing to elicit a minimum response of 50% are reported as *.
As to `COc1cc(-c2nc(N)c3c(n2)NC(=O)C3(C)C(=O)NC2CC2)nn1Cc1ccccc1F` (stereo not drawn) [Compound I-44], the EC50 was less than 0.1 µM.
On to `COc1cc(-c2ncc(F)c(N3CCS(=O)(=O)CC3)n2)nn1Cc1ccccc1F` [Compound I-63], for which the EC50 is greater than 30 µM.
Turning to `CCOC(=O)C1(C)C(=O)Nc2nc(-c3cc(OC(F)F)n(Cc4ccccc4F)n3)nc(N)c21` (stereo not drawn) [Compound I-72], the EC50 was less than 0.1 µM.

For another experiment, the system named is lambs with acute pulmonary hypertension.
Test: not given
The settings on record: after inhaling the microparticles; cited from earlier work.
For the compound `Nc1nc(-c2nn(Cc3ccccc3F)c3ncccc23)nc(N)c1N1CCOCC1` [BAY 41-8543], the “magnitude and duration of pulmonary vasodilation induced by iNO” value was “augmented”.

Staying with this experiment, now noted: inhaled microparticles after ODQ; cited from earlier work.
For `O=C(O)CCCCN(CCc1ccccc1OCc1ccc(CCc2ccccc2)cc1)Cc1ccc(C(=O)O)cc1` [BAY 58-2667], the “pulmonary vasodilation and transpulmonary cGMP release after treatment with ODQ” value is “greatly enhanced”.

The experiment is the same for the next values; noted with them: inhaled microparticles with excipients; awake lambs, U-46619 infusion; cited from earlier work.
With `Nc1nc(-c2nn(Cc3ccccc3F)c3ncccc23)ncc1C1CC1` [BAY 41-2272], the “effect on mean arterial pressure” value was “without significant effect on mean arterial pressure”, the pulmonary vasodilation entry is listed as “dose dependent pulmonary vasodilation” and the “transpulmonary cGMP release” value was “increased transpulmonary cGMP release”.
`Nc1nc(-c2nn(Cc3ccccc3F)c3ncccc23)nc(N)c1N1CCOCC1` [BAY 41-8543]: the “effect on mean arterial pressure” value is on record as “without significant effect on mean arterial pressure”, the pulmonary vasodilation entry is on record as “dose dependent pulmonary vasodilation” and the “transpulmonary cGMP release” value is on record as “increased transpulmonary cGMP release”.
Regarding `O=C(O)CCCCN(CCc1ccccc1OCc1ccc(CCc2ccccc2)cc1)Cc1ccc(C(=O)O)cc1` [BAY 58-2667], the “effect on mean arterial pressure” value is recorded as “without significant effect on mean arterial pressure”, the pulmonary vasodilation entry is “dose dependent pulmonary vasodilation” and the “transpulmonary cGMP release” value is reported as “increased transpulmonary cGMP release”.

The experiment is the same for the next values; noted with them: inhaled microparticles; cited from earlier work.
For `Nc1nc(-c2nn(Cc3ccccc3F)c3ncccc23)nc(N)c1N1CCOCC1` [BAY 41-8543], the systemic arterial oxygenation result was “increased systemic arterial oxygenation”.
For the compound `O=C(O)CCCCN(CCc1ccccc1OCc1ccc(CCc2ccccc2)cc1)Cc1ccc(C(=O)O)cc1` [BAY 58-2667], the systemic arterial oxygenation result is recorded as “increased systemic arterial oxygenation”.

Still in this experiment, the particulars now being: intravenous administration; cited from earlier work.
On to `O=c1onc2cnc3ccccc3n12` [ODQ, 1H-[1,2,4]oxadiazolo[4,3-a]quinoxalin-1-one], for which the “effect on pulmonary vasodilator effect of iNO” value is “markedly reduced the pulmonary vasodilator effect of iNO”.
